Assay results reported in patent US20200368312A1 (priority 2017, published 2020).
Where two headings read alike, the source gives them in different places.

Columns and labels:
Format in all cases: cell-based
[1] = test system: Staphylococcus aureus; assay: microbe, parasite or virus in culture; details: for MIC: Staphylococcus aureus, read-out: MIC
[2] = test system: Enterococci
[3] = test system: Streptococci; assay: Broth microdilution MIC, Streptococci (Example 11, Table 7)
[4] = test system: S. epidermidis (CoNS); assay: Broth microdilution MIC, S. epidermidis (CoNS) (Table 7)
[5] = test system: S. lugdenensis (CoNS); assay: Broth microdilution MIC, S. lugdenensis (CoNS) (Table 7); details: S. lugdenensis (CoNS) MMX 8724
[6] = test system: S. haemolyticus (CoNS); assay: Broth microdilution MIC, S. haemolyticus (CoNS) (Table 7); details: S. haemolyticus (CoNS) MMX 529 ATCC 29970
[7] = test system: S. hominis (CoNS); assay: Broth microdilution MIC, S. hominis (CoNS) (Table 7); details: S. hominis (CoNS) MMX 667 ATCC 27844
[8] = test system: C. perfringens
[9] = test system: P. micros; assay: Broth microdilution MIC, P. micros (Table 7); details: P. micros MMX 3546
[10] = test system: P. anaerobius; assay: Broth microdilution MIC, P. anaerobius (Table 7); details: P. anaerobius MMX 1208 ATCC 27337
[11] = test system: P. acnes; assay: Broth microdilution MIC, P. acnes (Table 7)

CN[C@H](CC(C)C)C(=O)N[C@H]1C(=O)N[C@@H](CC(N)=O)C(=O)N[C@H]2C(=O)N[C@H]3C(=O)N[C@H](C(=O)N[C@H](C(=O)O)c4cc(O)cc(O)c4-c4cc3ccc4O)[C@H](O)c3ccc(c(Cl)c3)Oc3cc2cc(c3O[C@@H]2O[C@H](CO)[C@@H](O)[C@H](O)[C@H]2O[C@H]2C[C@](C)(N)[C@H](O)[C@H](C)O2)Oc2ccc(cc2Cl)[C@H]1O [Vancomycin]
> 64 µg/mL: MIC ([2]; E. faecalis MMX 1086, VanA VRE) | MIC ([2]; E. faecium MMX 173, VanB VRE) | MIC ([2]; E. faecium MMX 851, VanA VRE)
0.25 µg/mL: MIC ([3]; S. agalactiae MMX 427 ATCC 13813) | MIC ([3]; S. agalactiae MMX 4088) | MIC ([3]; S. agalactiae MMX 4115, erm^R) | MIC ([3]; S. constellatus (AGS) MMX 5677) | MIC ([3]; S. dysgalactiae MMX 5121) | MIC ([3]; S. dysgalactiae MMX 5124) | MIC ([3]; S. mitis (MGS) MMX 5798) | MIC ([3]; S. oralis (MGS) MMX 5821) | MIC ([3]; S. pneumoniae MMX 432, PRSP) | MIC ([3]; S. pneumoniae MMX 1195 ATCC 49619, PISP) | MIC ([3]; S. pyogenes MMX 404 ATCC 19615) | MIC ([3]; S. pyogenes MMX 946, ermR) | MIC ([3]; S. pyogenes MMX 8778) | MIC [10] | MIC ([11]; P. acnes MMX 7942 ATCC 6919) | MIC ([11]; P. acnes MMX 7946 ATCC 11827)
0.12 µg/mL: MIC ([3]; S. pneumoniae MMX 747)
8 µg/mL: MIC ([1]; VISA, S. aureus MMX 1723, Mu50, VISA)
4 µg/mL: MIC ([1]; S. aureus MMX 4665, hVISA) | MIC ([1]; VISA, S. aureus MMX 2124, VISA, DaptoNS) | MIC ([1]; VISA, S. aureus MMX 4658, VISA) | MIC ([1]; VISA, S. aureus MMX 4660, VISA)
2 µg/mL: MIC ([2]; E. faecalis MMX 101 ATCC 29212, VSE) | MIC ([4]; S. epidermidis (CoNS) MMX 762, MRSE)
1 µg/mL: MIC ([1]; ATCC 33591 / MRSA, S. aureus MMX 5717 ATCC 33591, MRSA) | MIC ([1]; ATCC BAA-1756 / MRSA, S. aureus MMX 2011 ATCC BAA-1756, MRSA) | MIC ([1]; MRSA, S. aureus MMX 2010, MRSA) | MIC ([1]; MRSA, S. aureus MMX 7902, MRSA) | MIC ([1]; MRSA, S. aureus MMX 7903, MRSA) | MIC ([1]; MSSA, S. aureus MMX 2490, MSSA) | MIC ([1]; MSSA, S. aureus MMX 7908, MSSA) | MIC ([1]; S. aureus MMX 5989, Mu3, hVISA) | MIC ([2]; E. faecalis MMX 4176) | MIC ([4]; S. epidermidis (CoNS) MMX 5145, MRSE) | MIC [6]
86 ×: RV40 activity as compared to Comparator [1]
0.5 µg/mL: MIC ([1]; MRSA, S. aureus MMX 3982, MRSA) | MIC ([1]; MRSA, S. aureus MMX 5985, MRSA) | MIC ([1]; MRSA, S. aureus MMX 5999, MRSA) | MIC ([1]; MRSA, S. aureus MMX 7899, MRSA) | MIC ([1]; MRSA, S. aureus MMX 7900, MRSA) | MIC ([1]; MRSA, S. aureus MMX 7901, MRSA) | MIC ([1]; MSSA, S. aureus MMX 7907, MSSA) | MIC ([2]; E. faecium MMX 4204) | MIC ([3]; S. anginosus (AGS) MMX 1201 ATCC 33397) | MIC ([3]; S. dysgalactiae MMX 5123) | MIC ([3]; S. mitis (MGS) MMX 1205 ATCC 49456) | MIC [5] | MIC [7] | MIC [8] | MIC [9]
